Reference: patent publication US20170150719A1, “FUNGICIDAL PYRAZOLES AND THEIR MIXTURES” (E I DU PONT DE NEMOURS AND COMPANY, priority 2010, published 2017)
Marks after values point to notes of the source that are not given here.

Legend:
[1] = system: Puccinia recondita f. sp. tritici; experiment: Test G: wheat leaf rust, spray after inoculation (curative) on wheat seedlings, visual disease rating; assay type: in vivo; details: sprayed after inoculation, 100 = 100% disease control, 0 = no disease control
Excerpt: (§1) A hyphen (-) indicates no test results.

[2] = system: Alternaria solani; experiment: Test B: tomato early blight, preventive spray on tomato seedlings, visual disease rating; details: for pest or weed control at 200 µg/mL: Alternaria solani, in Solanum lycopersicum, read-out: Test B rating (disease control); for Test B rating (disease control): tomato early blight, 100 = 100% disease control, 0 = no disease control relative to the controls
[3] = system: Septoria nodorum; experiment: Test E: Septoria glume blotch, preventive spray on wheat seedlings, visual disease rating; details: 100 = 100% disease control, 0 = no disease control relative to the controls; for pest or weed control at 200 µg/mL: Parastagonospora nodorum, in Triticum aestivum, read-out: Test E rating (disease control), Septoria glume blotch; for Test E rating (disease control): Septoria glume blotch
[4] = system: Blumeria graminis f. sp. tritici; experiment: Test I: wheat powdery mildew, preventive spray on wheat seedlings, visual disease rating; details: 100 = 100% disease control, 0 = no disease control relative to the controls; for pest or weed control at 200 µg/mL: Blumeria graminis, in Triticum aestivum, read-out: Test I rating (disease control), wheat powdery mildew; for Test I rating (disease control): wheat powdery mildew
[5] = system: Botrytis cinerea; experiment: Test A: tomato Botrytis, preventive spray on tomato seedlings, visual disease rating; details: 100 = 100% disease control, 0 = no disease control relative to the controls; for pest or weed control at 200 µg/mL: Botrytis cinerea, in Solanum lycopersicum, read-out: Test A rating (disease control), tomato Botrytis; for Test A rating (disease control): tomato Botrytis
[6] = system: Puccinia recondita f. sp. tritici; experiment: Test H: wheat leaf rust, preventive spray on wheat seedlings, visual disease rating; details: 100 = 100% disease control, 0 = no disease control; for pest or weed control at 200 µg/mL: read-out: Test H rating (disease control), wheat leaf rust, sprayed the day before inoculation; for Test H rating (disease control): wheat leaf rust, sprayed the day before inoculation
Protocol: General protocol for preparing test suspensions for Tests A-I: the test compounds were first dissolved in acetone in an amount equal to 3% of the final volume and then suspended at the desired concentration (in ppm) in acetone and purified water (50/50 mix by volume) containing 250 ppm of the surfactant Trem® 014 (polyhydric alcohol esters). The resulting test suspensions were then used in Tests A-I. Each test was conducted in triplicate, and the results were averaged. Spraying a 200 ppm test suspension to the point of run-off on the test plants was the equivalent of a rate of about 800 g/ha. Unless otherwise indicated, the rating values indicate a 200 ppm test suspension was used. (An asterisk “*” next to the rating value indicates a 40 ppm test suspension was used.)
The test suspension was sprayed to the point of run-off on wheat seedlings. The following day the seedlings were inoculated with a spore suspension of Puccinia recondita f. sp. tritici (the causal agent of wheat leaf rust) and incubated in a saturated atmosphere at 20° C. for 24 h, and then moved to a growth chamber at 20° C. for 6 days, after which time visual disease ratings were made.

[7] = system: Septoria tritici; experiment: Test F: wheat leaf blotch, preventive spray on wheat seedlings, visual disease rating; assay type: in vivo; design: Test F rating (disease control), value marked *: concentration or dose not given beside the values; details: for pest or weed control at 200 µg/mL: Zymoseptoria tritici; for pest or weed control at 200 µg/mL / Test F rating (disease control): 100 = 100% disease control, 0 = no disease control relative to the controls
Excerpt: as §1

Work on `Cc1nn(C)c(Nc2c(F)cc(Cl)cc2F)c1-c1ccc(F)cc1F` [Compound 126, N-(4-chloro-2,6-difluorophenyl)-4-(2,4-difluorophenyl)-1,3-dimethyl-1H-pyrazol-5-amine] yielded a pest or weed control at 200 µg/mL [1] of 0%, a pest or weed control at 200 µg/mL [2] of 86% and a pest or weed control at 200 µg/mL [3] of 87%. For the same compound, the pest or weed control at 200 µg/mL [4] was 100%, the pest or weed control at 200 µg/mL [5] was 100% and the pest or weed control at 200 µg/mL [6] was 99%. For the same compound, the pest or weed control at 200 µg/mL [7] was 100%.
`COc1ccc(-c2c(C)nn(C)c2Oc2ccc(C#N)cc2F)c(Cl)c1` [compound 92] was tested, and the “Test G rating (disease control)” value [1] was 0%, the “Test B rating (disease control)” value [2] was 99% and the “Test E rating (disease control)” value [3] was 99%. The “Test I rating (disease control)” value [4] was 96%, the “Test A rating (disease control)” value [5] was 100% and the “Test H rating (disease control)” value [6] was 99%. For the same compound, the “Test F rating (disease control)” value [7] was 100%.
With `Cc1nn(C)c(Nc2ccc(Br)cc2F)c1-c1ccc(F)cc1Cl` [compound 135] the “Test G rating (disease control)” value [1] was 9%, the “Test B rating (disease control)” value [2] was 58% and the “Test E rating (disease control)” value [3] was 0%. For the same compound, the “Test I rating (disease control)” value [4] was 100%, the “Test A rating (disease control)” value [5] was 100% and the “Test H rating (disease control)” value [6] was 99%. For the same compound, the “Test F rating (disease control)” value [7] was 100%.
In the case of `COc1ccc(Nc2c(-c3ccc(F)cc3F)c(C)nn2C)c(Cl)c1` [compound 66], the “Test G rating (disease control)” value [1] was 0%, the “Test B rating (disease control)” value [2] was 37% and the “Test E rating (disease control)” value [3] was 0%. The “Test I rating (disease control)” value [4] was 100%, the “Test A rating (disease control)” value [5] was 99% and the “Test H rating (disease control)” value [6] was 91%. For the same compound, the “Test F rating (disease control)” value [7] was 100%.
Work on `Cc1nn(C)c(Nc2c(F)cc(Cl)cc2F)c1-c1ccc(F)cc1Br` [Compound 129, 4-(2-bromo-4-fluorophenyl)-N-(4-chloro-2,6-difluorophenyl)-1,3-dimethyl-1H-pyrazol-5-amine] yielded a pest or weed control at 200 µg/mL [1] of 79%, a pest or weed control at 200 µg/mL [2] of 97% and a pest or weed control at 200 µg/mL [3] of 95%. The pest or weed control at 200 µg/mL [4] was 100%, the pest or weed control at 200 µg/mL [5] was 100% and the pest or weed control at 200 µg/mL [6] was 100%. The pest or weed control at 200 µg/mL [7] was 100%.
`Cc1nn(C)c(Nc2ccc(F)cc2Br)c1-c1ccc(F)cc1Cl` [Compound 73, N-(2-bromo-4-fluorophenyl)-4-(2-chloro-4-fluorophenyl)-1,3-dimethyl-1H-pyrazol-5-amine] showed a pest or weed control at 200 µg/mL [1] of 90%, a pest or weed control at 200 µg/mL [2] of 99% and a pest or weed control at 200 µg/mL [3] of 78%. For the same compound, the pest or weed control at 200 µg/mL [4] was 100%, the pest or weed control at 200 µg/mL [5] was 100% and the pest or weed control at 200 µg/mL [6] was 100%. The pest or weed control at 200 µg/mL [7] was 100%.
For `Cc1nn(C)c(Nc2ccc(Cl)cc2Cl)c1-c1c(F)cccc1F` [compound 50], the “Test G rating (disease control)” value [1] was 0%, the “Test B rating (disease control)” value [2] was 99% and the “Test E rating (disease control)” value [3] was 73%. For the same compound, the “Test I rating (disease control)” value [4] was 100%, the “Test A rating (disease control)” value [5] was 100% and the “Test H rating (disease control)” value [6] was 93%. The “Test F rating (disease control)” value [7] was 95%.
For `Cc1nn(C)c(Nc2c(F)cc(F)cc2F)c1-c1ccc(Cl)cc1Cl` [compound 18], the “Test G rating (disease control)” value [1] was 95%, the “Test B rating (disease control)” value [2] was 98% and the “Test E rating (disease control)” value [3] was 98%. For the same compound, the “Test I rating (disease control)” value [4] was 97%, the “Test A rating (disease control)” value [5] was 100% and the “Test H rating (disease control)” value [6] was 99%. The “Test F rating (disease control)” value [7] was 99%.
In the case of `Cc1nn(C)c(Nc2ccc(F)cc2Cl)c1-c1c(F)cc(C#N)cc1F` [compound 31], the “Test G rating (disease control)” value [1] was 53%, the “Test B rating (disease control)” value [2] was 98% and the “Test E rating (disease control)” value [3] was 99%. The “Test I rating (disease control)” value [4] was 100%, the “Test A rating (disease control)” value [5] was 100% and the “Test H rating (disease control)” value [6] was 100%. The “Test F rating (disease control)” value [7] was 99%.
`Cc1nn(C)c(Nc2c(F)cc(F)cc2F)c1-c1c(F)cccc1F` [compound 89] was tested, and the “Test G rating (disease control)” value [1] was 9%, the “Test B rating (disease control)” value [2] was 99% and the “Test E rating (disease control)” value [3] was 82%. For the same compound, the “Test I rating (disease control)” value [4] was 100%, the “Test A rating (disease control)” value [5] was 100% and the “Test H rating (disease control)” value [6] was 99%. The “Test F rating (disease control)” value [7] was 100%.
`Cc1nn(C)c(Nc2ccc(F)cc2F)c1-c1ccc(C#N)cc1Cl` [compound 107] was tested, and the “Test G rating (disease control)” value [1] was 8%, the “Test B rating (disease control)” value [2] was 80% and the “Test E rating (disease control)” value [3] was 73%. For the same compound, the “Test I rating (disease control)” value [4] was 97%, the “Test A rating (disease control)” value [5] was 100% and the “Test H rating (disease control)” value [6] was 100%. For the same compound, the “Test F rating (disease control)” value [7] was 100%.
For `Cc1nn(C)c(Nc2c(F)cc(C#N)cc2F)c1-c1ccc(F)cc1F` [compound 83], the “Test G rating (disease control)” value [1] was 0%, the “Test B rating (disease control)” value [2] was 99% and the “Test E rating (disease control)” value [3] was 87%. The “Test I rating (disease control)” value [4] was 100%, the “Test A rating (disease control)” value [5] was 100% and the “Test H rating (disease control)” value [6] was 100%. For the same compound, the “Test F rating (disease control)” value [7] was 100%.
With `Cc1nn(C)c(Nc2c(Cl)cc(Br)cc2Cl)c1-c1ccc(F)cc1Br` [compound 168] the “Test G rating (disease control)” value [1] was 97%, the “Test B rating (disease control)” value [2] was 0% and the “Test E rating (disease control)” value [3] was 0%. The “Test I rating (disease control)” value [4] was 48%, the “Test A rating (disease control)” value [5] was 0% and the “Test H rating (disease control)” value [6] was 91%. The “Test F rating (disease control)” value [7] was 100%.
In the case of `Cc1nn(C)c(Nc2ccc(Cl)cc2Cl)c1-c1c(F)cccc1Cl` [compound 78], the “Test G rating (disease control)” value [1] was 9%, the “Test B rating (disease control)” value [2] was 65% and the “Test E rating (disease control)” value [3] was 0%. The “Test I rating (disease control)” value [4] was 100%, the “Test A rating (disease control)” value [5] was 99% and the “Test H rating (disease control)” value [6] was 99%. For the same compound, the “Test F rating (disease control), value marked *” value ([7]; rating marked with asterisk (*), other test condition, not explained in the text shown) was 99* %.
With `Cc1nn(C)c(Nc2ccc(Br)cc2F)c1-c1ccc(F)cc1F` [compound 154] the “Test G rating (disease control)” value [1] was 68%, the “Test B rating (disease control)” value [2] was 9% and the “Test E rating (disease control)” value [3] was 0%. The “Test I rating (disease control)” value [4] was 99%, the “Test A rating (disease control)” value [5] was 100% and the “Test H rating (disease control)” value [6] was 98%. The “Test F rating (disease control)” value [7] was 100%.
In the case of `CCOc1ccc(Nc2c(-c3ccc(F)cc3Cl)c(C)nn2C)c(Cl)c1` [compound 104], the “Test G rating (disease control)” value [1] was 0%, the “Test B rating (disease control)” value [2] was 0% and the “Test E rating (disease control)” value [3] was 0%. For the same compound, the “Test I rating (disease control)” value [4] was 99%, the “Test A rating (disease control)” value [5] was 100% and the “Test H rating (disease control)” value [6] was 97%. For the same compound, the “Test F rating (disease control)” value [7] was 100%.
In the case of `Cc1nn(C)c(Nc2ccc(Cl)cc2F)c1-c1ccc(F)cc1F` [compound 160], the “Test G rating (disease control)” value [1] was 0%, the “Test B rating (disease control)” value [2] was 99% and the “Test E rating (disease control)” value [3] was 0%. The “Test I rating (disease control)” value [4] was 100%, the “Test A rating (disease control)” value [5] was 100% and the “Test H rating (disease control)” value [6] was 99%. For the same compound, the “Test F rating (disease control)” value [7] was 100%.
For `COc1cc(F)c(-c2c(C)nn(C)c2Nc2ccc(C#N)cc2Cl)c(F)c1` [compound 32], the “Test G rating (disease control)” value [1] was 11%, the “Test B rating (disease control)” value [2] was 97% and the “Test E rating (disease control)” value [3] was 82%. The “Test I rating (disease control)” value [4] was 97%, the “Test A rating (disease control)” value [5] was 99% and the “Test H rating (disease control)” value [6] was 98%. For the same compound, the “Test F rating (disease control)” value [7] was 100%.
In the case of `Cc1nn(C)c(Nc2c(F)cc(F)cc2F)c1-c1c(F)cccc1Cl` [compound 56], the “Test G rating (disease control)” value [1] was 0%, the “Test B rating (disease control)” value [2] was 100% and the “Test E rating (disease control)” value [3] was 0%. The “Test I rating (disease control)” value [4] was 99%, the “Test A rating (disease control)” value [5] was 98% and the “Test H rating (disease control)” value [6] was 97%. For the same compound, the “Test F rating (disease control)” value [7] was 100%.
